Reference: US12478617B2, “Lipidated peptide inhibitors of interleukin-23 receptor” (JANSSEN BIOTECH, INC., priority 2021, dated 2025)
Starred links: 1 amine or outer side, 2 acyl side, 3 side chain; linkers in the order of their positions; H or OH if unused. Positions of bridges follow the written chain, without caps; N, C: chain ends. Non-standard residues stand in square brackets, D forms with d. Residues, ends and D or L forms follow the SMILES beside them. Groups on a side chain read outwards from the residue. *: point of attachment. X7 = C[N+](C)(CCNC(=O)CC[C@H](NC(=O)CCCCCCCCCCCCCCCCC(=O)O)C(=O)O)CC(=O)*; X5 = O=C(O)CCCCCCCCCCCCCCCCC(=O)N[C@@H](CCN*)C(=O)O; Trp(7-Me) = Cc1cccc2c(C[C@H](N)C(=O)O)c[nH]c12; C18 diacid = O=C(O)CCCCCCCCCCCCCCCCC(=O)*; C16 diacid = O=C(O)CCCCCCCCCCCCCCC(=O)*; γGlu = O=C(O)[C@H](CCC(=O)[*:2])N[*:1]; 2Nal = N[C@@H](Cc1ccc2ccccc2c1)C(=O)O; AEF = NCCOc1ccc(C[C@H](N)C(=O)O)cc1; PEG6 = NCCOCCOCCOCCOCCOCCOCCC(=O)O; 3Pal = N[C@@H](Cc1cccnc1)C(=O)O; Pen = CC(C)(S)[C@H](N)C(=O)O; Thp = NC1(C(=O)O)CCOCC1; AEEA = NCCOCCOCC(=O)O; Sar = CNCC(=O)O

Molecular target: T1, IL-23R (Homo sapiens, UniProt Q5VWK5)
T1 construct: HEK293 cells containing IL-23R, IL-12RP31 and a firefly luciferase reporter gene driven by a STAT-inducible promoter (Promega); host or cells: HEK293
T1 sequence (Q5VWK5 24-629): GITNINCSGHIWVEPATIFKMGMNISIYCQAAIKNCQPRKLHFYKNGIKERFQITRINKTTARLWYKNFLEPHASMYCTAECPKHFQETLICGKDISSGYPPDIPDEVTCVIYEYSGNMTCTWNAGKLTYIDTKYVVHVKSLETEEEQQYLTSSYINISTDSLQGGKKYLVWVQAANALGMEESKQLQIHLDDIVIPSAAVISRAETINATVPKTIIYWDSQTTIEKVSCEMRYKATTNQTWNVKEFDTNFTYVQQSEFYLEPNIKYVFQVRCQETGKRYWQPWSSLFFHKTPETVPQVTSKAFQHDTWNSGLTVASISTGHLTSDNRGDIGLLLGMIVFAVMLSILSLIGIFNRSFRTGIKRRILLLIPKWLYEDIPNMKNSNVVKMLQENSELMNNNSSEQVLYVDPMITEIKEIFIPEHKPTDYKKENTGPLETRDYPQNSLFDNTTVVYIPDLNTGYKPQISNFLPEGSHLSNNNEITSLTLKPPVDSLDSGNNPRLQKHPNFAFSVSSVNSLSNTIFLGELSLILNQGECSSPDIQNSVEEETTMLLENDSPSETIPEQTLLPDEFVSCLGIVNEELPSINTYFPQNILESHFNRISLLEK
Assay: IL23R Reporter Assay
Format: cell-based
Outline: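 Reporter cells read out IL-23-driven STAT3 activation; compounds were serially diluted in DMSO. After 5 h at 37 °C, 5% CO2, cells were brought to 20 °C and luminescence was measured with BioGlo reagent.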

Row | Compound | IC50 [nM]
1 | CC(=O)NCCCC[C@@H]1NC(=O)[C@H](Cc2c[nH]c3c(C)cccc23)NC(=O)[C@H]([C@@H](C)O)NC(=O)[C@H](CC(N)=O)NC(=O)[C@@H](NC(C)=O)C(C)(C)SSC(C)(C)[C@@H](C(=O)N[C@@H](Cc2ccc(OCCN)cc2)C(=O)N[C@@H](Cc2ccc3ccccc3c2)C(=O)NC2(C(=O)N[C@@H](CCCCNC(=O)COCCOCCNC(=O)COCCOCCNC(=O)[C@@H]3CCCN3C(=O)CC[C@H](NC(=O)CCCCCCCCCCCCCCCCC(=O)O)C(=O)O)C(=O)N[C@@H](CC(N)=O)C(=O)N[C@@H](Cc3cccnc3)C(=O)N(C)CC(N)=O)CCOCC2)NC1=O [Example 105, MeCO-Pen*-N-T-7MeW-K(Ac)-Pen*-AEF-2Nal-THP-K(PEG2PEG2PgEC18OH)-N-3Pya-Sar-CONH2] (Ac-[Pen]NT[Trp(7-Me)]K(Ac)[Pen][AEF][2Nal][Thp]K([AEEA-AEEA-Pro-γGlu-C18 diacid])N[3Pal][Sar]-NH2; disulfide 1-6) | 0.089
2 | CC(=O)NCCCC[C@@H]1NC(=O)[C@H](Cc2c[nH]c3c(C)cccc23)NC(=O)[C@H]([C@@H](C)O)NC(=O)[C@H](CC(N)=O)NC(=O)[C@@H](NC(=O)[C@@H](CCCNC(=N)N)NC(=O)COCCOCCNC(=O)COCCOCCNC(=O)CC[C@H](NC(=O)CCCCCCCCCCCCCCC(=O)O)C(=O)O)C(C)(C)SSC(C)(C)[C@@H](C(=O)N[C@@H](Cc2ccc(OCCN)cc2)C(=O)N[C@@H](Cc2ccc3ccccc3c2)C(=O)NC2(C(=O)N[C@@H](CCCCNC(=O)COCCOCCNC(=O)COCCOCCNC(=O)CC[C@H](NC(=O)CCCCCCCCCCCCCCC(=O)O)C(=O)O)C(=O)N[C@@H](CC(N)=O)C(=O)N[C@@H](Cc3cccnc3)C(=O)N(C)CC(N)=O)CCOCC2)NC1=O [Example 37, HOC16gEPEG2PEG2-r-Pen*-N-T-7MeW-K(Ac)-Pen*-AEF-2Nal-THP-K(PEG2PEG2gEC16OH)-N-3Pya-Sar-CONH2] ({C16 diacid-γGlu-AEEA-AEEA}-[dR][Pen]NT[Trp(7-Me)]K(Ac)[Pen][AEF][2Nal][Thp]K([AEEA-AEEA-γGlu-C16 diacid])N[3Pal][Sar]-NH2; disulfide 2-7) | 0.19
3 | CC(=O)NCCCC[C@@H]1NC(=O)[C@H](Cc2c[nH]c3c(C)cccc23)NC(=O)[C@H]([C@@H](C)O)NC(=O)[C@H](CCCCNC(=O)COCCOCCNC(=O)CC[C@H](NC(=O)CCCCCCCCCCCCCCCCC(=O)O)C(=O)O)NC(=O)[C@@H](NC(=O)[C@@H](CCCNC(=N)N)NC(C)=O)C(C)(C)SSC(C)(C)[C@@H](C(=O)N[C@@H](Cc2ccc(OCCN)cc2)C(=O)N[C@@H](Cc2ccc3ccccc3c2)C(=O)NC2(C(=O)N[C@@H](CCCCNC(C)=O)C(=O)N[C@@H](CC(N)=O)C(=O)N[C@@H](Cc3cccnc3)C(=O)N(C)CC(N)=O)CCOCC2)NC1=O [Example 52, MeCO-r-Pen*-K(PEG2gE C18OH)-T-7MeW-K(Ac)-Pen*-AEF-2Nal-THP-K(Ac)-N-3Pya-Sar-CONH2] (Ac-[dR][Pen]K([AEEA-γGlu-C18 diacid])T[Trp(7-Me)]K(Ac)[Pen][AEF][2Nal][Thp]K(Ac)N[3Pal][Sar]-NH2; disulfide 2-7) | 0.15
4 | CC(=O)NCCCC[C@@H]1NC(=O)[C@H](Cc2c[nH]c3c(C)cccc23)NC(=O)[C@H]([C@@H](C)O)NC(=O)[C@H](CCCCNC(=O)COCCOCCNC(=O)COCCOCCNC(=O)[C@H]2CCCN2C(=O)CC[C@H](NC(=O)CCCCCCCCCCCCCCCCC(=O)O)C(=O)O)NC(=O)[C@@H](NC(=O)[C@@H](CCCNC(=N)N)NC(C)=O)C(C)(C)SSC(C)(C)[C@@H](C(=O)N[C@@H](Cc2ccc(OCCN)cc2)C(=O)N[C@@H](Cc2ccc3ccccc3c2)C(=O)NC2(C(=O)N[C@@H](CCCCNC(C)=O)C(=O)N[C@@H](CC(N)=O)C(=O)N[C@@H](Cc3cccnc3)C(=O)N(C)CC(N)=O)CCOCC2)NC1=O [Example 96, MeCO-r-Pen*-K(PEG2PEG2pgEC18OH)-T-7MeW-K(Ac)-Pen*-AEF-2Nal-THP-K(Ac)-N-3Pya-Sar-CONH2] (Ac-[dR][Pen]K([AEEA-AEEA-dP-γGlu-C18 diacid])T[Trp(7-Me)]K(Ac)[Pen][AEF][2Nal][Thp]K(Ac)N[3Pal][Sar]-NH2; disulfide 2-7) | 0.13

More lines, in order of falling IC50, values ahead:

Row | IC50 [nM] | Compound
5 | 0.24 | CC(=O)NCCCC[C@@H]1NC(=O)[C@H](Cc2c[nH]c3c(C)cccc23)NC(=O)[C@H]([C@@H](C)O)NC(=O)[C@H](CC(N)=O)NC(=O)[C@@H](NC(=O)[C@@H](CCCNC(=N)N)NC(C)=O)C(C)(C)SSC(C)(C)[C@@H](C(=O)N[C@@H](Cc2ccc(OCCN)cc2)C(=O)N[C@@H](Cc2ccc3ccccc3c2)C(=O)NC2(C(=O)N[C@@H](CCCCNC(C)=O)C(=O)N[C@@H](CC(N)=O)C(=O)N[C@@H](Cc3cccnc3)C(=O)N(C)CC(=O)NCCOCCOCC(=O)NCCOCCOCC(=O)NCC[C@H](NC(=O)CCCCCCCCCCCCCCCCC(=O)O)C(=O)O)CCOCC2)NC1=O [Example 129, MeCO-r-Pen*-N-T-7MeW-K(Ac)-Pen*-AEF-2Nal-THP-K(Ac)-N-3Pya-Sar-PEG2PEG2gDabC18OH-COOH] (Ac-[dR][Pen]NT[Trp(7-Me)]K(Ac)[Pen][AEF][2Nal][Thp]K(Ac)N[3Pal][Sar][AEEA][AEEA]-X5; disulfide 2-7)
6 | 0.13 | CC(=O)NCCCC[C@@H]1NC(=O)[C@H](Cc2c[nH]c3c(C)cccc23)NC(=O)[C@H]([C@@H](C)O)NC(=O)[C@H](CCCCNC(=O)CCOCCOCCOCCOCCOCCOCCNC(=O)CC[C@H](NC(=O)CCCCCCCCCCCCCCCCC(=O)O)C(=O)O)NC(=O)[C@@H](NC(=O)[C@@H](CCCNC(=N)N)NC(C)=O)C(C)(C)SSC(C)(C)[C@@H](C(=O)N[C@@H](Cc2ccc(OCCN)cc2)C(=O)N[C@@H](Cc2ccc3ccccc3c2)C(=O)NC2(C(=O)N[C@@H](CCCCNC(C)=O)C(=O)N[C@@H](CC(N)=O)C(=O)N[C@@H](Cc3cccnc3)C(=O)N(C)CC(N)=O)CCOCC2)NC1=O [Example 63, MeCO-r-Pen*-K(PEG6gEC18OH)-T-7MeW-K(Ac)-Pen*-AEF-2Nal-THP-K(Ac)-N-3Pya-Sar-CONH2] (Ac-[dR][Pen]K([PEG6-γGlu-C18 diacid])T[Trp(7-Me)]K(Ac)[Pen][AEF][2Nal][Thp]K(Ac)N[3Pal][Sar]-NH2; disulfide 2-7)
7 | 0.09 | CC(=O)NCCCC[C@@H]1NC(=O)[C@H](Cc2c[nH]c3c(C)cccc23)NC(=O)[C@H]([C@@H](C)O)NC(=O)[C@H](CC(N)=O)NC(=O)[C@@H](NC(C)=O)C(C)(C)SSC(C)(C)[C@@H](C(=O)N[C@@H](Cc2ccc(OCCN)cc2)C(=O)N[C@@H](Cc2ccc3ccccc3c2)C(=O)NC2(C(=O)N[C@@H](CCCCNC(=O)COCCOCCNC(=O)COCCOCCNC(=O)[C@@H]3CCCN3C(=O)[C@@H]3CCCN3C(=O)[C@@H]3CCCN3C(=O)CC[C@H](NC(=O)CCCCCCCCCCCCCCCCC(=O)O)C(=O)O)C(=O)N[C@@H](CC(N)=O)C(=O)N[C@@H](Cc3cccnc3)C(=O)N(C)CC(N)=O)CCOCC2)NC1=O [Example 107, MeCO-Pen*-N-T-7MeW-K(Ac)-Pen*-AEF-2Nal-THP-K(PEG2PEG2PPPgEC18OH)-N-3Pya-Sar-CONH2]
8 | 0.078 | CC(=O)NCCCC[C@@H]1NC(=O)[C@H](Cc2c[nH]c3c(C)cccc23)NC(=O)[C@H]([C@@H](C)O)NC(=O)[C@H](CC(N)=O)NC(=O)[C@@H](NC(C)=O)C(C)(C)SSC(C)(C)[C@@H](C(=O)N[C@@H](Cc2ccc(OCCN)cc2)C(=O)N[C@@H](Cc2ccc3ccccc3c2)C(=O)NC2(C(=O)N[C@@H](CCCCNC(=O)COCCOCCNC(=O)COCCOCCNC(=O)CCCCCCCCCCCCCCCCC(=O)O)C(=O)N[C@@H](CC(N)=O)C(=O)N[C@@H](Cc3cccnc3)C(=O)N(C)CC(N)=O)CCOCC2)NC1=O [Example 41, MeCO-Pen*-N-T-7MeW-K(Ac)-Pen*-AEF-2Nal-THP-K(PEG2PEG2C18OH)-N-3Pya-Sar-CONH2] (Ac-[Pen]NT[Trp(7-Me)]K(Ac)[Pen][AEF][2Nal][Thp]K([AEEA-AEEA-C18 diacid])N[3Pal][Sar]-NH2; disulfide 1-6)
9 | 0.077 | CC(=O)NCCCC[C@@H]1NC(=O)[C@H](Cc2c[nH]c3c(C)cccc23)NC(=O)[C@H]([C@@H](C)O)NC(=O)[C@H](CC(N)=O)NC(=O)[C@@H](NC(C)=O)C(C)(C)SSC(C)(C)[C@@H](C(=O)N[C@@H](Cc2ccc(OCCN)cc2)C(=O)N[C@@H](Cc2ccc3ccccc3c2)C(=O)NC2(C(=O)N[C@@H](CCCCNC(=O)COCCOCCNC(=O)COCCOCCNC(=O)C[N+](C)(C)CCNC(=O)CC[C@H](NC(=O)CCCCCCCCCCCCCCCCC(=O)O)C(=O)O)C(=O)N[C@@H](CC(N)=O)C(=O)N[C@@H](Cc3cccnc3)C(=O)N(C)CC(N)=O)CCOCC2)NC1=O [Example 118, MeCO-Pen*-N-T-7MeW-K(Ac)-Pen*-AEF-2Nal-THP-K(PEG2PEG2SP6gEC18OH)-N-3Pya-Sar-CONH2] (Ac-[Pen]NT[Trp(7-Me)]K(Ac)[Pen][AEF][2Nal][Thp]K([AEEA-AEEA-X7])N[3Pal][Sar]-NH2; disulfide 1-6)
